From patent US9676782B2, “Substituted pyrazolo[1,5-a]pyrazines as negative allosteric modulators of metabotropic glutamate receptor 3” (Vanderbilt University, priority 2014, dated 2017)
Where two headings read alike, the source gives them in different places.

Assays:
[1] = biological target: rat mGlu3 (Rattus norvegicus (Rat), UniProt P31422); experiment: mGlu3 Ca2+ flux assay; type: cell-based; details: for IC50: read-out: rat mGlu3 IC50; for remaining activity at 30 µM: amplitude of response at 30 μM test compound as % of maximal response to glutamate, read-out: rat mGlu3 Glu max (%)
Description: (§1) The cells were grown overnight at 37° C. in the presence of 5% CO2. […] Dye was removed, 20 μL of assay buffer was added, and the plate was incubated for 10 minutes at room temperature. Ca^2+ flux was measured using the Functional Drug Screening System (FDSS7000, Hamamatsu, Japan). […] All test compounds were dissolved and diluted to a concentration of 10 mM in 100% DMSO. […] Calcium fluorescence measures were recorded as fold over basal fluorescence; raw data was then normalized to the maximal response to glutamate. […] The raw data file containing all time points was used as the data source in the analysis template. This was saved by the FDSS as a tab-delimited text file. Data were normalized using a static ratio function (F/F0) for each measurement of the total 360 values per well divided by each well's initial value. […] This is sufficient time to capture the peak amplitude of the cellular calcium response. […] EC50 values for test compounds were generated by fitting the normalized values versus the log of the test compound concentration (in mol/L) using a 4 parameter logistic equation where none of the parameters were fixed. Each of the three values collected at each concentration of test compound were weighted evenly.

[2] = biological target: rat mGlu5 (Rattus norvegicus (Rat), UniProt P31424); experiment: mGlu5 Ca2+ flux assay; type: cell-based; details: for Emax at 30 µM: read-out: rat mGlu5 Glu max (%); for Fold selectivity (mGlu3 vs. mGlu5): ratio of rat mGlu5 EC50 or IC50 to rat mGlu3 IC50
Description: as §1, with “for 5” for “for 10”

[3] = NAM potency, decrease of glutamate EC80 response, >30,000 = no measurable activity, >10,000 = no plateau
[4] = PAM, amplitude of response at 30 μM test compound as % of maximal response to glutamate
[5] = read-out: rat mGlu5 EC50 or IC50

Chain of rat mGlu3 (P31422 23-879): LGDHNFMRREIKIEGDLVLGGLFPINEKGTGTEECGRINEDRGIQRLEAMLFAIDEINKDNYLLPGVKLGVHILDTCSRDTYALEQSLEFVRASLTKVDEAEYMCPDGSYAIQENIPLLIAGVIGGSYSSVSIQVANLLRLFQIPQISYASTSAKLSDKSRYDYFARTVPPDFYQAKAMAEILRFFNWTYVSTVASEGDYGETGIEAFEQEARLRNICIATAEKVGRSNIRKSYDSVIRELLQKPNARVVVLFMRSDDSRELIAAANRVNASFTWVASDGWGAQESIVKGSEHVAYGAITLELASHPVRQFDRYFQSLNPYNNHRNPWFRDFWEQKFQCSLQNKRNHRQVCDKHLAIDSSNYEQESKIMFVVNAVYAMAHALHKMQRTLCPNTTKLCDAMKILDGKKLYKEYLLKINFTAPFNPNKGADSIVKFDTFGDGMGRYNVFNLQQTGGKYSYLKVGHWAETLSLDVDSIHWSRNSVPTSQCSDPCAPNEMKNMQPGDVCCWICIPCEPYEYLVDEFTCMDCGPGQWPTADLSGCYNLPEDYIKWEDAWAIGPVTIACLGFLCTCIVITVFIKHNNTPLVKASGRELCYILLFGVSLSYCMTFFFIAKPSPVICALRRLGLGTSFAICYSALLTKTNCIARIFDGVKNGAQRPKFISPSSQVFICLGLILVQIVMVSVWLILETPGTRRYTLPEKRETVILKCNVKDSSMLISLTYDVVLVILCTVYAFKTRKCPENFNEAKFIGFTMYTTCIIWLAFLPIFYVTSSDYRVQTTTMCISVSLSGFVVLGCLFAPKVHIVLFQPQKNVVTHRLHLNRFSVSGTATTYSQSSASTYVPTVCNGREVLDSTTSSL
Chain of rat mGlu5 (P31424 21-1203): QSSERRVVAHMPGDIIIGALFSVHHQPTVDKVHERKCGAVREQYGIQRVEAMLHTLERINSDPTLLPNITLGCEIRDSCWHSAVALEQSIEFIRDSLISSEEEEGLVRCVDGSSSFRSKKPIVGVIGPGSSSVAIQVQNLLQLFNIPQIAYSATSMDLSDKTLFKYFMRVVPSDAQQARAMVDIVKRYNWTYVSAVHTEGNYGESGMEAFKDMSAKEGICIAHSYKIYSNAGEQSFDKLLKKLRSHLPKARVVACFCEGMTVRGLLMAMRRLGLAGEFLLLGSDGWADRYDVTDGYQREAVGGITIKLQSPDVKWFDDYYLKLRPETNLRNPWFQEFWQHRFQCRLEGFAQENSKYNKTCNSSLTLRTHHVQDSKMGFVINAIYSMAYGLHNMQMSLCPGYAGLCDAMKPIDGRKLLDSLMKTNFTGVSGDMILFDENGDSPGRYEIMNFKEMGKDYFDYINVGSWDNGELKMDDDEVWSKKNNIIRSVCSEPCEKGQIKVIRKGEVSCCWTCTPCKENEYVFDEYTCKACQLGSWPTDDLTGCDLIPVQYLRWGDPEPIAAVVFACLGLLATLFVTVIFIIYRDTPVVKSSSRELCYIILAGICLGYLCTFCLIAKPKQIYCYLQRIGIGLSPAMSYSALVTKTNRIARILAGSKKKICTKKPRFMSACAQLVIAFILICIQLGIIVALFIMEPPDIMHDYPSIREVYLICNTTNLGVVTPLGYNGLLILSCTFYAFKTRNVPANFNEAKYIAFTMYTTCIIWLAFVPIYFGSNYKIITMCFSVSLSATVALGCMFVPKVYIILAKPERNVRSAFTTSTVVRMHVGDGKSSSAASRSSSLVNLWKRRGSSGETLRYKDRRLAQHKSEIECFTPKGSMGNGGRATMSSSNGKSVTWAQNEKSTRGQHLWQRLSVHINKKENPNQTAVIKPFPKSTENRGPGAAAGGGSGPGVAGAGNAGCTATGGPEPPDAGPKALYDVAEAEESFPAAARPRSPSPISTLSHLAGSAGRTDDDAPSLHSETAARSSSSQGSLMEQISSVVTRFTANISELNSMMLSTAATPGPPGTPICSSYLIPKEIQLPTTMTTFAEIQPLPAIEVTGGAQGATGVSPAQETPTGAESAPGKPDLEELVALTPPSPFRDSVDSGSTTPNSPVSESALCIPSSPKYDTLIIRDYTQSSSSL

Row | IC50 [1] [µM] | SMILES | IC50 [1, 3] [µM] | remaining activity at 30 µM [1] [%] | Emax at 30 µM [2, 4] [%] | Fold selectivity (mGlu3 vs. mGlu5) [2] | EC50 [2, 5] [µM] | IC50 ([2]; compound noted as NAM or partial antagonist (PAnt) at mGlu5, glutamate EC80, read-out: rat mGlu5 EC50 or IC50) [µM] | Emax at 30 µM ([2]; compound noted as NAM or partial antagonist (PAnt) at mGlu5, response at 30 μM as % of maximal glutamate response) [%]
1 | – | Cc1ccccc1NCc1cc2n(n1)[C@@H](C)CN(c1ccc(F)cc1)C2=O [Compound 45, (S)-5-(4-fluorophenyl)-7-methyl-2-((o-tolylamino)methyl)-6,7-dihydropyrazolo[1,5-a]pyrazin-4(5H)-one] | 3.34 | 1.32 | 37.1 | >2.9 | > 10 | – | –
2 | 1.21 | C[C@@H]1CN(c2ccc(F)cc2)C(=O)c2cc(CNc3cccc(F)c3)nn21 [Compound 46, (R)-5-(4-fluorophenyl)-2-(((3-fluorophenyl)amino)methyl)-7-methyl-6,7-dihydropyrazolo[1,5-a]pyrazin-4(5H)-one] | – | 0.58 | 24.6 | >8.2 | > 10 | – | –
3 | 1.84 | C[C@H]1CN(c2ccc(F)cc2)C(=O)c2cc(CNc3cccc(F)c3)nn21 [Compound 47, (S)-5-(4-fluorophenyl)-2-(((3-fluorophenyl)amino)methyl)-7-methyl-6,7-dihydropyrazolo[1,5-a]pyrazin-4(5H)-one] | – | 1.77 | 78.3 | 0.58 | 1.07 | – | –
4 | 1.65 | C[C@@H]1CN(c2ccc(F)cc2)C(=O)c2cc(CNc3cccc(Cl)c3)nn21 [Compound 48, (R)-2-(((3-chlorophenyl)amino)methyl)-5-(4-fluorophenyl)-7-methyl-6,7-dihydropyrazolo[1,5-a]pyrazin-4(5H)-one] | – | 1.63 | 88.8 | >6.0 | > 10 | – | –
5 | 1.33 | C[C@H]1CN(c2ccc(F)cc2)C(=O)c2cc(CNc3cccc(Cl)c3)nn21 [Compound 49, (S)-2-(((3-chlorophenyl)amino)methyl)-5-(4-fluorophenyl)-7-methyl-6,7-dihydropyrazolo[1,5-a]pyrazin-4(5H)-one] | – | -0.54 | 76.5 | 4.45 | 5.92 | – | –
6 | – | Cc1cccc(NCc2cc3n(n2)[C@H](C)CN(c2ccc(F)cc2)C3=O)c1 [Compound 50, (R)-5-(4-fluorophenyl)-7-methyl-2-((m-tolylamino)methyl)-6,7-dihydropyrazolo[1,5-a]pyrazin-4(5H)-one] | 3.05 | 0.09 | – | >9.8 | > 30 | – | –
7 | – | Cc1cccc(NCc2cc3n(n2)[C@@H](C)CN(c2ccc(F)cc2)C3=O)c1 [Compound 51, (S)-5-(4-fluorophenyl)-7-methyl-2-((m-tolylamino)methyl)-6,7-dihydropyrazolo[1,5-a]pyrazin-4(5H)-one] | 3.01 | 3.21 | 86.2 | 2.53 | 7.61 | – | –
8 | – | COc1cccc(NCc2cc3n(n2)[C@H](C)CN(c2ccc(F)cc2)C3=O)c1 [Compound 52, (R)-5-(4-fluorophenyl)-2-(((3-methoxyphenyl)amino)methyl)-7-methyl-6,7-dihydropyrazolo[1,5-a]pyrazin-4(5H)-one] | 2.72 | 4.06 | – | >11 | > 30 | – | –
9 | – | COc1cccc(NCc2cc3n(n2)[C@@H](C)CN(c2ccc(F)cc2)C3=O)c1 [Compound 53, (S)-5-(4-fluorophenyl)-2-(((3-methoxyphenyl)amino)methyl)-7-methyl-6,7-dihydropyrazolo[1,5-a]pyrazin-4(5H)-one] | 10 | 8.62 | – | >3.0 | > 30 | – | –
10 | – | C[C@@H]1CN(c2ccc(F)cc2)C(=O)c2cc(CNc3cccc(OC(F)F)c3)nn21 [Compound 54, (R)-2-(((3-(difluoromethoxy)phenyl)amino)methyl)-5-(4-fluorophenyl)-7-methyl-6,7-dihydropyrazolo[1,5-a]pyrazin-4(5H)-one] | 2.04 | 3.56 | – | >4.9 | – | > 10 | 36
11 | – | C[C@H]1CN(c2ccc(F)cc2)C(=O)c2cc(CNc3cccc(OC(F)F)c3)nn21 [Compound 55, (S)-2-(((3-(difluoromethoxy)phenyl)amino)methyl)-5-(4-fluorophenyl)-7-methyl-6,7-dihydropyrazolo[1,5-a]pyrazin-4(5H)-one] | 1.67 | 1.85 | 28.8 | >5.9 | > 10 | – | –
12 | – | C[C@@H]1CN(c2ccc(F)cc2)C(=O)c2cc(CNc3ccc(F)cc3)nn21 [Compound 56, (R)-5-(4-fluorophenyl)-2-(((4-fluorophenyl)amino)methyl)-7-methyl-6,7-dihydropyrazolo[1,5-a]pyrazin-4(5H)-one] | 1.16 | 2.97 | – | >25 | > 30 | – | –
13 | – | C[C@H]1CN(c2ccc(F)cc2)C(=O)c2cc(CNc3ccc(F)cc3)nn21 [Compound 57, (S)-5-(4-fluorophenyl)-2-(((4-fluorophenyl)amino)methyl)-7-methyl-6,7-dihydropyrazolo[1,5-a]pyrazin-4(5H)-one] | 2.32 | 0.96 | 56.7 | 2.38 | 5.53 | – | –
14 | – | Cc1ccc(NCc2cc3n(n2)[C@H](C)CN(c2ccc(F)cc2)C3=O)cc1 [Compound 58, (R)-5-(4-fluorophenyl)-7-methyl-2-((p-tolylamino)methyl)-6,7-dihydropyrazolo[1,5-a]pyrazin-4(5H)-one] | 1.83 | 1.27 | – | >16 | > 30 | – | –
15 | – | Cc1ccc(NCc2cc3n(n2)[C@@H](C)CN(c2ccc(F)cc2)C3=O)cc1 [Compound 59, (S)-5-(4-fluorophenyl)-7-methyl-2-((p-tolylamino)methyl)-6,7-dihydropyrazolo[1,5-a]pyrazin-4(5H)-one] | 1.74 | 3.14 | 48.9 | >5.7 | > 10 | – | –
16 | – | C[C@@H]1CN(c2ccc(F)cc2)C(=O)c2cc(CNc3ccc(Cl)cc3)nn21 [Compound 60, (R)-2-(((4-chlorophenyl)amino)methyl)-5-(4-fluorophenyl)-7-methyl-6,7-dihydropyrazolo[1,5-a]pyrazin-4(5H)-one] | 1.25 | 0.56 | 31.5 | >8.0 | > 10 | – | –
17 | – | C[C@H]1CN(c2ccc(F)cc2)C(=O)c2cc(CNc3ccc(Cl)cc3)nn21 [Compound 61, (S)-2-(((4-chlorophenyl)amino)methyl)-5-(4-fluorophenyl)-7-methyl-6,7-dihydropyrazolo[1,5-a]pyrazin-4(5H)-one] | 1.31 | 2.22 | 80.3 | 4.69 | 6.15 | – | –
18 | – | COc1ccc(NCc2cc3n(n2)[C@H](C)CN(c2ccc(F)cc2)C3=O)cc1 [Compound 62, (R)-5-(4-fluorophenyl)-2-(((4-methoxyphenyl)amino)methyl)-7-methyl-6,7-dihydropyrazolo[1,5-a]pyrazin-4(5H)-one] | 2.99 | 0.79 | – | >10 | > 30 | – | –
19 | – | COc1ccc(NCc2cc3n(n2)[C@@H](C)CN(c2ccc(F)cc2)C3=O)cc1 [Compound 63, (S)-5-(4-fluorophenyl)-2-(((4-methoxyphenyl)amino)methyl)-7-methyl-6,7-dihydropyrazolo[1,5-a]pyrazin-4(5H)-one] | 8.37 | -0.6 | – | >3.5 | > 30 | – | –
